From patent US12178830B2, “Compositions and methods for adoptive cell therapy for cancer” (MEMORIAL SLOAN KETTERING CANCER CENTER, priority 2017, dated 2024)
“And” between values parts separate entries of the source, which are not always exact repeats. Equal entries are not always repeated. Where two headings read alike, the source gives them in different places.

How the values were obtained:
[1] = tested on: normal human fibroblast MRC5; test: CellTitre Glo in vitro cytotoxicity, MRC5; type: cell-based
Procedure: (§1) In vitro cytotoxicity of AMS-related structures was also assessed to determine the modifications of AMS that alter cytotoxicity. The in vitro cytotoxicity of each of these AMS-related structures was tested against both hepatocellular carcinoma HepG2 and normal human fibroblast MRC5 cell lines using a CellTitre Glo® assay (Promega, Madison, WI) The modifications and results are provided in Table 1 below.

[2] = tested on: hepatocellular carcinoma HepG2; test: CellTitre Glo in vitro cytotoxicity, HepG2; type: cell-based
Procedure: This example describes the synthesis of exemplary prodrugs based on sulfamoyladenosine (AMS) (structure 1c) (FIG. 2C) for cleavage by the bacterial hydrolase enzyme CPG2. AMS is a close analog of nucleocidin and a potent cytotoxic molecule (HepG2 IC50=9 nM). […] Based on these SAR data, AMS prodrug 1a (“P-AMS”; FIG. 2C) was synthesized from 2′,3′-O-isopropylidene-5′-O-TBS-adenosine (structure 3, FIG. 2D) by 6-N-acylation with CDI-activated bis-O-t-Bu-glutamate (30%), desilylation (TBAF), sulfamoylation (H2NSO2C1, DMA), and acetonide hydrolysis (TFA, H2O, 15% over 3 steps). Two alternative N-sulfamate-linked prodrugs (not shown) attached via CO-PAB-CO and TML-CO linkers were synthesized (FIG. 2B). A more detailed discussion of the P-AMS synthesis and the synthesis of the N-sulfamate-linked prodrug attached via a TML-CO linker (“Trimethyllock-AMS”) is provided below in this example. As an alternative cytotoxic using a known anticancer therapeutic, the mustard prodrug ZD2767P (structure 2a, FIG. 2C) was also synthesized as previously reported (Springer et al., J Med Chem. 37(15):2361-70(1994) and Niculescu-Duvaz et al., Tetrahedron Lett. 46(40):6919-22 (2005)).
as §1

primary T-cells = test: CellTitre Glo in vitro cytotoxicity, primary T cells; type: cell-based, human
HL 60 (leukemia) = test: CellTitre Glo in vitro cytotoxicity, HL 60; type: cell-based
Procedure: (§2) The in vitro cytotoxicity of AMS (structure 1c) and its prodrug variant (structure 1a) was tested against a variety of cell lines using a CellTitre Glo® assay (Promega, Madison, WI). […] Moreover, co-treatment with the prodrug and supernatant from CPG2-transfected HEK293T cells (see Example 3) led to cytotoxicity approaching that of the free drug (50 nM), consistent with CPG2-mediated cleavage of the prodrug to release the active parent drug. […] In contrast, AMS prodrug 1a was not activated by HEK293T cells expressing CPG intracellularly, which likely attributed to poor cell-penetrance of the prodrug due to the free bis-anionic gluatamate moiety.

Jurkat (T cell) = test: CellTitre Glo in vitro cytotoxicity, Jurkat; type: cell-based, human
HEK293T (kidney) = test: CellTitre Glo in vitro cytotoxicity, HEK293T; type: cell-based, human
[3] = tested on: non-small cell lung carcinoma cell line HCC827; test: CellTitre-Glo viability, HCC827; type: cell-based, human; conditions: HCC827, 48 hours
Procedure: Human Jurkat T cells, primary T cells and human non-small cell lung carcinoma cell lines PC9 and HCC827 were treated with increasing concentrations of the receptor tyrosine kinase inhibitor Erlotinib. […] Cell viability was measured at 48 hours by CellTitre-Glo® luminescence.

[4] = tested on: non-small cell lung carcinoma cell line PC9; test: CellTitre-Glo viability, PC9; type: cell-based, human
Procedure: FIG. 14 provides exemplary data showing that Human T cells, but not cancer cells, are resistant to Erlotinib. (A) Human Jurkat T cells (red circle) and human non-small cell lung carcinoma cell lines PC9 (black square) and HCC827 (blue triangle) were treated with increasing concentrations of the receptor tyrosine kinase inhibitor Erlotinib. […] Cell viability was measured at 48 hours by CellTitre-Glo® luminescence.
FIG. 14 provides exemplary data showing that Human T cells, but not cancer cells, are resistant to Erlotinib. Human Jurkat T cells, primary T cells and human non-small cell lung carcinoma cell lines PC9 and HCC827 were treated with increasing concentrations of the receptor tyrosine kinase inhibitor Erlotinib. […] PC9 cells were incubated in the presence of Erlotinib, P-Erlotinib, or P-Erlotinib in the presence of purified CPG2. Cell viability was measured at 48 hours by CellTitre-Glo® luminescence.

[5] = Cell permeability in CACO-2 cells; type: in vitro ADME, human; conditions: human
[6] = tested on: lung adenocarcinoma cells (HCC827); test: Co-culture of GFP+ 293tCPGTM cells with HCC827 plus erlotinib prodrug; type: cell-based; conditions: 293tCPGTM:HCC827 various ratios, 120 hr
Procedure: FIG. 15 provides exemplary data showing the pro-drug activity of 293T cells expressing transmembrane CPG2. GFP+293t^CPGTM cells were co-cultured with lung adenocarcinoma cells (HCC827) at various ratios (293t^CPGTM:HCC827) and the erlotinib prodrug (p-erlotinib) was added. (A) Cells were analyzed at 120 hour by flow cytometry and % GFP was calculated. (B) Ratio of 293t^CPGTM cells to HCC827 cells was calculated for each cell ratio.
The retroviral constructs encoding the anti-CD19 CAR and transmembrane CPG2 enzyme described above were transduced into 293T cells to test the conversion activity of transmembrane CPG2 for an Erlotinib prodrug. GFP+293t^CPGTM cells were co-cultured with lung adenocarcinoma cells (HCC827) at various ratios (293t^CPGTM:HCC827) and the erlotinib prodrug (p-erlotinib) was added. Cells were analyzed at 120 hr. by flow cytometry (FIG. 15A) and the percentage of GFP cells and the ratio of 293t^CPGTM cells to HCC827 cells was calculated for each cell ratio (FIG. 15B).

Jurkat T cells = test: Jurkat viability with prodrug plus supernatant from CPG2-secreting HEK293T cells; type: cell-based, human
Procedure: as §2
Jurkat T cells were exposed to increasing concentrations of AMS (circle) or Pro-AMS with media alone (triangle) or supernatant from CPG2-secreting HEK293T cells (square). Cell viability was measured at 48 hours by CellTitre-Glo® luminescence assay.
Jurkat T cells were exposed to increasing concentrations of ZD2767P with media alone (triangle) or supernatant from CPG2-secreting HEK293T cells (square). Cell viability was measured at 48 hours by CellTitre-Glo® luminescence assay.

[7] = tested on: myeloid leukemia cell line SET2; test: CellTitre Glo in vitro cytotoxicity, SET2; type: cell-based; conditions: Set2; prodrug vs AMS
SET2 cells = test: SET2 viability with prodrug plus recombinant enzyme or enzyme-containing supernatant; type: cell-based; conditions: Beta-lactamase supernatant; control media did not
Procedure: Recombinant CPG2 protein was initially synthesized, purified (FIGS. 18A and 18B), and incubated with increasing concentrations of prodrug in a glutamate release assay (FIG. 17C). Mass spectrometry was used to determine that the glutamate moiety was released from all of the glutamate prodrugs. The in vitro cytotoxicity of the prodrugs (FIG. 17B) were tested against the myeloid leukemia cell line SET2 using a CellTitre Glo® assay (Promega, Madison, WI).
SET2 cells were exposed to increasing concentrations of AMS (square) or glut-AMS with media alone (− control, triangle) or supernatant from CPG2-secreting HEK293t cells (circle). Cell viability was measured by CellTitre-Glo® luminescence assay.
Thus, antigen-dependent expansion of SEAKER T cells results in increased output of enzyme into the extracellular milieu.
To determine to respective enzyme output of the Beta-lactamase constructs relative to the previous CPG2 constructs, a quantitative sandwich ELISA was used to determine the concentration (ng/mL) of purified recombinant CPG2, and a quantitative nitrocefin assay was used to determine the concentration (ng/mL) of purified recombinant Beta-lactamase (FIG. 25A). Cell viability was measured by CellTitre-Glo® luminescence in the presence of prodrug (glut-AMS or ceph-AMS) and varying concentrations of purified recombinant CPG2 or Beta-lactamase (FIG. 25B).

[8] = Caco-2, with Ver (so in the source), concentration not stated, + Ver

Compound | IC50 [1] | IC50 ([2]; read-out: IC50, HepG2) | other results
Nc1nc(N)c2ncn([C@@H]3O[C@H](COS(N)(=O)=O)[C@@H](O)[C@H]3O)c2n1 [2-NH2-AMS] | < 1 µM and 1.17 µM | < 1 µM and 1.75 µM | 
Nc1nc(Nc2ccccc2)nc2c1ncn2[C@@H]1O[C@H](COS(N)(=O)=O)[C@@H](O)[C@H]1O [2-NHPh-AMS] | 124 µM | > 500 µM | 
Nc1nc(-c2ccccc2)nc2c1ncn2[C@@H]1O[C@H](COS(N)(=O)=O)[C@@H](O)[C@H]1O [2-phenyl-AMS] | > 500 µM | ~500 µM | 
Nc1ncnc2c1ncn2[C@H]1C[C@H](O)[C@@H](COS(N)(=O)=O)O1 [2′-deoxy-AMS] |  | < 1 µM and 0.55 µM | 
NS(=O)(=O)OC[C@H]1O[C@@H](n2cnc3c(NC4CC4)ncnc32)[C@H](O)[C@@H]1O [6-NCyp-AMS] | 7.2 µM | 10.9 µM | 
CNc1ncnc2c1ncn2[C@@H]1O[C@H](COS(N)(=O)=O)[C@@H](O)[C@H]1O [6-NHMe-AMS] | 0.9 µM | 1.8 µM | 
CN(C)c1ncnc2c1ncn2[C@@H]1O[C@H](COS(N)(=O)=O)[C@@H](O)[C@H]1O [6-NMe2-AMS] | > 500 µM | > 500 µM | 
COc1ncnc2c1ncn2[C@@H]1O[C@H](COS(N)(=O)=O)[C@@H](O)[C@H]1O [6-OMe-AMS] | 129 µM | 141 µM | 
Nc1ncnc2c1nc(Cl)n2[C@@H]1O[C@H](COS(N)(=O)=O)[C@@H](O)[C@H]1O [8-Cl-AMS] | 3.2 µM and 3.51 µM |  | 
CCCc1nc2c(N)ncnc2n1[C@@H]1O[C@H](COS(N)(=O)=O)[C@@H](O)[C@H]1O [8-propyl-AMS] | > 500 µM | > 500 µM | 
Nc1ncnc2c1ncn2[C@@H]1O[C@H](CNS(N)(=O)=O)[C@@H](O)[C@H]1O [AMSN] | 0.39 µM | 0.36 µM | 
Nc1ncnc2c1ncn2[C@@H]1O[C@H](COS(N)(=O)=O)[C@@H](O)[C@H]1O [AMS] | 0.03 µM |  | IC50 (primary T-cells; primary T-cells, read-out: IC50): 0.066 µM; IC50 (HL 60 (leukemia)): 0.07 µM; IC50 (Jurkat (T cell); Jurkat, read-out: IC50): 0.018 µM; IC50 (HEK293T (kidney); HEK293T, read-out: IC50): 0.666 µM; IC50 ([2]; read-out: HepG2 IC50): 0.009 µM
Nc1ccn([C@@H]2O[C@H](COS(N)(=O)=O)[C@@H](O)[C@H]2O)c(=O)n1 [CMS] | > 500 µM | > 500 µM | 
C#Cc1cccc(Nc2ncnc3cc(OCCOC)c(OCCOC)cc23)c1 [Erlotinib, reference compound] |  |  | response to increasing concentrations (primary T-cells; primary T cells): exhibited resistance; response to increasing concentrations (Jurkat (T cell); T cell lines (Jurkat), 48 hours): exhibited resistance; response to increasing concentrations [3]: significant cell death; response to increasing concentrations ([4]; PC9, 48 hours): significant cell death
Nc1nc2c(ncn2[C@@H]2O[C@H](COS(N)(=O)=O)[C@@H](O)[C@H]2O)c(=O)[nH]1 [GMS] | > 500 µM | > 500 µM | 
NS(=O)(=O)OC[C@H]1O[C@@H](n2cnc3c(O)ncnc32)[C@H](O)[C@@H]1O [IMS] | > 500 µM | > 500 µM | 
CN(C)C(=O)C(CCN1CCC(O)(c2ccc(Cl)cc2)CC1)(c1ccccc1)c1ccccc1 [Loperamide] |  |  | Papp A→B [5, 8]: 10.5 ± 1.5 ×10⁻⁶ cm/s; Papp B→A [5, 8]: 7.8 ± 0.5 ×10⁻⁶ cm/s; Papp A→B ([5]; Caco-2): 2.2 ± 0.3 ×10⁻⁶ cm/s; Papp B→A ([5]; Caco-2): 16.9 ± 1.1 ×10⁻⁶ cm/s
C#Cc1cccc(N(Cc2ccc(NC(=O)N[C@@H](CCC(=O)O)C(=O)O)cc2)c2ncnc3cc(OCCOC)c(OCCOC)cc23)c1 [P-Erlotinib, ((4-(((6,7-bis(2-methoxyethoxy)quinazolin-4-yl)(3-ethynylphenyl)amino)methyl)phenyl)carbamoyl)-L-glutamic acid] |  |  | killing in co-culture with transmembrane CPG2 cells [6]: kills the target cancer cell, but not the cell secreting the enzyme; toxicity in PC9 cells ([4]; 1 μM, without CPG2, 48 hours): no toxicity; activity of cleaved prodrug in PC9 cells ([4]; in the presence of purified CPG2, 48 hours): comparable activity to the active drug
Cc1cn([C@H]2C[C@H](O)[C@@H](COS(N)(=O)=O)O2)c(=O)[nH]c1=O [TMS] | > 500 µM | > 500 µM | 
NS(=O)(=O)OC[C@H]1O[C@@H](n2ccc(=O)[nH]c2=O)[C@H](O)[C@@H]1O [UMS] | > 500 µM | > 500 µM | 
O=C(O)CC[C@H](NC(=O)Oc1ccc(N(CCI)CCI)cc1)C(=O)O [ZD2767P] |  |  | cell viability with prodrug and CPG2 supernatant (Jurkat T cells; increasing prodrug, 48 hours, supernatant from CPG2-secreting HEK293T cells): significant decrease in cell viability; IC50 (Jurkat T cells; with CPG2 supernatant): 1.7 µM
Nc1ncnc2c1ncn2[C@@H]1O[C@H](COS(=O)(=O)NCC2=C(C(=O)O)N3C(=O)[C@@H](NC(=O)Cc4cccs4)[C@H]3SC2)[C@@H](O)[C@H]1O [ceph-AMS] |  |  | Selective Index (primary T-cells; Human T cell, prodrug vs AMS): >6; Selective Index [7]: ~64; Selective Index (HEK293T (kidney); HEK293t, prodrug vs AMS): ~3; SET2 cell viability with prodrug and Beta-lactamase supernatant (SET2 cells): significant decrease in cell viability
